The numbers were not newly measured in patent US6458923B1, “Modified position (7) bradykinin antagonist peptides” (Scios Inc., priority 1991, dated 2002), which cites them from elsewhere.

No end group written: not given here.

In series [1] the test system is pulmonary kininase. The conditions noted are these: anesthetized rat; intra-aortic vs intravenous administration.

Regarding “RPPGFSPFR [Bradykinin, Arg Pro Pro Gly Phe Ser Pro Phe Arg]”, the “half life in the systemic circulation” value is “less than 30 seconds”. Also, the “destruction on a single passage through the pulmonary circulation” value in series [1] is 98-99%.
